One compound from patent US20090297618A1, “COMPOSITION BENEFICIAL FOR VISUOGNOSIS PERSISTENCE AND USE THEREOF” (Zhejiang Medicine Co., Ltd. Xinchang Pharmaceutical Factory, priority 2008, published 2009) can be followed below.

This experiment relates to subjects who use video display terminals (VDT) for long time and tend to have asthenopia. As to the kind of experiment: Human feeding test: detection of visuognosis persistence (asthenopia remission test). The experiment is classed as in vivo. To be noted: after feeding tablets 35 days, once per day, two tablets, compared with before feeding; FIG. 1. An excerpt: As used herein, the term “visuognosis persistence” is an index for evaluating asthenopia. When the cortical excitability in the human brain reduces, the visual analysis function decreases, in the process of eyes fixating at object, invisible duration will increase and visuognosis duration will decrease. […] X^2 test was used for performance indexes.

Compound `CC1=C[C@H](O)CC(C)(C)[C@H]1/C=C/C(C)=C/C=C/C(C)=C/C=C/C=C(C)/C=C/C=C(C)/C=C/C1=C(C)C[C@@H](O)CC1(C)C` [lutein] had a visuognosis persistence increased of 10.27±8.56%.
